The values below come from patent US20190298796A1, “Therapeutic Compositions from the Brevinin-1 Family of Peptides and Uses Thereof” (priority 2016, published 2019).

One data set deals with E .coli. ATCC 25922. It counts as cell-based, Escherichia coli.
Data set [1] has as its system Streptococcus mutans MTCC 497. It counts as cell-based. As to conditions: NA = not active up to the highest concentration tested.
Source text: (§2) Antimicrobial activity: Broth dilution method [39] was used to assess the antimicrobial activity of the peptides. Bacterial strains used for in vitro antibacterial assay were Staphylococcus aureus (MTCC 9542), Bacillus subtilis (MTCC 14416), Bacillus coagulans (ATCC 7050), Methicillin-resistant Staphylococcus aureus (MRSA) (ATCC 43300), Streptococcus mutans (MTCC 497), Streptococcus gordonii (MTCC 2695), Vibrio cholerae (MCV09), Escherichia coli (ATCC 25922), Vancomycin-resistant enterococcus (VRE) (ATCC 29212) and gram-negative fish pathogens Aeromonas hydrophila (ATCC 7966) and Aeromonas sobria (ATCC 43979). Bacterial cultures were grown in Muller Hinton broth (MHB) (Hi-media) by overnight incubation at 37° C. with constant shaking. Microbial cultures having 10^6 CFU/ml were made from OD600: 0.6 cultures. 400 μM stock solutions of peptides were prepared in autoclaved double distilled water and diluted in MHB to make concentrations ranging from 0.7 to 100 μM. Bacterial inoculum without peptide was used as the negative control.
The subject of data set [2] is Staphylococcus aureus MTCC 9542. Type of data set: cell-based. As to conditions: lowest peptide concentration required to kill entire bacteria, 24 hrs, NA = not active up to the highest concentration tested.
Source text: as §2
Data set [3] relates to Bacillus coagulans ATCC 7050. Type of data set: cell-based. The following applies: lowest concentration killing entire bacteria, 24 hrs.
Source text: as §2
The test system of data set [4] is Aeromonas hydrophilia ATCC 7966. It counts as cell-based, Aeromonas hydrophila. As to conditions: Aeromonas hydrophilia ATCC 7966 (fish pathogen); NA = not active up to the highest concentration tested.
Source text: as §2
The next data set relates to VRE ATCC 29212. As to conditions: lowest concentration killing entire bacteria, 24 hrs.
For the next data set, the system named is V. cholerae (MCV09). The data set can be described thus: SYTOX green uptake, confocal imaging of membrane permeation. It counts as cell-based, Vibrio cholerae. The following applies: MIC concentration, 10 min, CLSM. The procedure: (§1) Imaging the bacterial membrane permeation by the amidated peptides. In order to find out the membrane damage by the peptides, if any, we used SYTOX green uptake assay. MIC concentrations of B1/1 CONH2 and B1/2 CONH2 were prepared in sodium phosphate buffer (10 mM, pH: 7.4). Overnight cultures of S. aureus (MTCC 9542) and V. cholerae (MCV09) were re-inoculated in fresh MHB to attain an OD600-0.6. The bacterial suspension was centrifuged (3000×g) for 5 min and the pellet was washed twice with the sodium phosphate buffer (10 mM, pH: 7.4). The pellet was resuspended in the same buffer to an OD600-0.06. Diluted culture was incubated with the peptides for 10 min at 37° C. 100 μl suspensions were poured on to poly-L-lysine coated glass slides and incubated at 37° c. for 30 minutes. The glass slides were washed twice in the same buffer to remove unattached cells. After washing 50 μl of DAPI (10 μg/ml) was smeared on the glass slide and incubated for 30 minutes at 37° C. The slides were washed twice with the buffer and SYTOX green (0.1 μM) was smeared and incubated for 15 minutes at room temperature, washed twice and dried. A drop of glycerol was placed on the slides, mounted with a cover slip and sealed. Controls were run in the presence of peptide solvents. The slides were subjected to confocal laser scanning microscopy (CLSM).

The next data set has as its system Vibrio cholerae MCV09. It counts as cell-based. As to conditions: NA = not active up to the highest concentration tested.
Another data set concerns MRSA ATCC 43300. Type of data set: cell-based, Methicillin-resistant Staphylococcus aureus. As to conditions: lowest concentration killing entire bacteria, 24 hrs.
The next data set relates to human erythrocytes. It counts as cell-based. As to conditions: 60 min. Here is the method: Hemolytic Activity: Hemolytic assay was carried out as previously described. Briefly, 10% (v/v) suspensions of fresh human erythrocytes in phosphate buffered saline (pH 7.2) were incubated with different concentrations (100 μM-0.7 μM) of B1/1 COOH & B1/2 COOH, B1/1 CONH2 & B1/2 CONH2 and cyclic B1/1 CONH2 & cyclic B1/2 CONH2 and incubated at 3^7° C. for 60 min. The cells were centrifuged (3000×g) for 5 min, and absorbance of the supernatant was measured at 595 nm. Hemolysis caused by 10% Triton X-100 was taken as positive control. Percentage hemolysis was calculated by measuring the mean amount of hemoglobin released as a result of lysis of erythrocyte from three independent experiments.

Data set [5] relates to Bacillus subtilis MTCC 14416. Type of data set: cell-based. The following applies: lowest concentration killing entire bacteria, 24 hrs.
Source text: as §2
The subject of another data set is S. aureus (MTCC 9542). The data set is described as follows: SYTOX green uptake, confocal imaging of membrane permeation. It counts as cell-based, Staphylococcus aureus. As to conditions: MIC concentration, 10 min, CLSM. The procedure:
as §1

Data set [6] has as its system Streptococcus gordonii MTCC 2695. It counts as cell-based. As to conditions: NA = not active up to the highest concentration tested.
Source text: as §2
In data set [7] the test system is Aeromonas sobria ATCC 43979. It counts as cell-based. The following applies: Aeromonas sobria ATCC 43979 (fish pathogen); NA = not active up to the highest concentration tested.
Source text: as §2
The test system of data set [8] is V. cholerae cells (MCV09). The data set can be described thus: Atomic Force Microscopy of surface morphology. It counts as cell-based, Vibrio cholerae. The following applies: MIC, 15 min. Here is the method:
Visualizing the changes in surface morphology of bacteria: Atomic Force Microscopy. This was incorporated to get more insights into the mechanism of action of the peptides and to confirm the results obtained from SEM. V. cholerae cells (MCV09) were grown in MHB at 37° C., washed, and suspended in sodium phosphate buffer (10 mM, pH: 7.4) (OD600-0.06). Diluted bacteria were incubated with the MICs of B1/1 CONH2 and B1/2 CONH2 for 15 min. The control sample was prepared without the peptides. Samples were prepared by drop casting 20 μL of a solution on the freshly cleaved mica surface and dried under air. AFM analyses were carried out on Multimode SPM (Veeco Nanoscope V). Imaging was done under ambient conditions in tapping mode. The probe used for imaging was antimony doped silicon cantilever with a resonant frequency of 300 kHz and a spring constant of 40 Nm^−1.

[9] abbreviates: at the peptide's MIC for Aeromonas sobria ATCC 43979 (MIC in parenthesis).
[10] abbreviates: at the peptide's MIC for Staphylococcus aureus MTCC 9542 (MIC in parenthesis).
Setting [11] is: at the peptide's MIC for Vibrio cholerae MCV09 (MIC in parenthesis).

In brackets after ≈: the same amount, converted by molar mass. Where two headings read alike, the source gives them in different places. Positions of bridges follow the written chain, without caps; N, C: chain ends. Residues, ends and D or L forms follow the SMILES beside them.

Source text for E .coli. ATCC 25922: as §2
Source text for MRSA ATCC 43300: as §2
Source text for VRE ATCC 29212: as §2
Source text for Vibrio cholerae MCV09: as §2

With `CC[C@H](C)[C@H](NC(=O)CNC(=O)[C@@H]1CCCN1C(=O)[C@H](Cc1ccccc1)NC(=O)[C@@H](N)Cc1ccccc1)C(=O)N[C@H](C(=O)N[C@@H](CCCCN)C(=O)N[C@H](C(=O)N[C@@H](C)C(=O)N[C@@H](CO)C(=O)N[C@@H](C)C(=O)N[C@H](C(=O)N[C@@H](CC(C)C)C(=O)N1CCC[C@H]1C(=O)N[C@H](C(=O)N[C@@H](C)C(=O)N[C@H](C(=O)N[C@@H](CS)C(=O)N[C@@H](C)C(=O)N[C@H](C(=O)N[C@H](C(=O)N[C@@H](CCCCN)C(=O)N[C@@H](CCCNC(=N)N)C(=O)N[C@@H](CS)C(N)=O)[C@@H](C)O)[C@@H](C)CC)[C@@H](C)CC)[C@@H](C)O)[C@@H](C)CC)C(C)C)[C@@H](C)CC` [B1/1 CONH2] (H-FFPGIIKVASAILPTAICAITKRC-NH2; N-terminus assumed), the MIC was 29 µM (≈ 73.5 µg/mL) in the data set with E .coli. ATCC 25922; 36 µM (≈ 91.2 µg/mL) in data set [1]; 1.5 µM (≈ 3.8 µg/mL) in data set [2]; 8.2 µM (≈ 20.8 µg/mL) in [3]; 100 µM (≈ 253 µg/mL) in [4]; 25 µM (≈ 63.3 µg/mL) in the data set on VRE ATCC 29212. The MIC in the data set with Vibrio cholerae MCV09 came to 10.3 µM (≈ 26.1 µg/mL); against MRSA ATCC 43300 it was 2.5 µM (≈ 6.33 µg/mL); in [5] it was 36.3 µM (≈ 92 µg/mL); in data set [6], 19 µM (≈ 48.1 µg/mL); in [7], 12.5 µM (≈ 31.7 µg/mL). Moreover, the “SYTOX green fluorescence signal (membrane permeabilization)” value in the data set on V. cholerae (MCV09) and in the data set on S. aureus (MTCC 9542) was “marked increase in fluorescence signal” in each case. The “Percentage hemolysis at MIC” value worked out at 25% in the data set on human erythrocytes (setting [9]), 10% in the data set on human erythrocytes (setting [10]) and 20% in the data set with human erythrocytes (setting [11]). Besides, in data set [8], the “Changes in surface morphology (AFM)” value is “changes in surface morphology and aggregation”.

Turning to `CC[C@H](C)[C@H](NC(=O)CNC(=O)[C@@H]1CCCN1C(=O)[C@H](Cc1ccccc1)NC(=O)[C@@H](N)Cc1ccccc1)C(=O)N[C@H](C(=O)N[C@@H](CCCCN)C(=O)N[C@H](C(=O)N[C@@H](C)C(=O)NCC(=O)N[C@@H](C)C(=O)N[C@H](C(=O)N[C@@H](CC(C)C)C(=O)N1CCC[C@H]1C(=O)N[C@H](C(=O)N[C@@H](C)C(=O)N[C@H](C(=O)N[C@@H](CS)C(=O)N[C@@H](C)C(=O)N[C@H](C(=O)N[C@H](C(=O)N[C@@H](CCCCN)C(=O)N[C@@H](CCCNC(=N)N)C(=O)N[C@@H](CS)C(N)=O)[C@@H](C)O)[C@@H](C)CC)[C@@H](C)CC)[C@@H](C)O)[C@@H](C)CC)C(C)C)[C@@H](C)CC` [B1/2 CONH2] (H-FFPGIIKVAGAILPTAICAITKRC-NH2; N-terminus assumed), the MIC in the data set on E .coli. ATCC 25922 stood at 36.2 µM (≈ 90.6 µg/mL); in data set [1], 40 µM (≈ 100 µg/mL); in [2], 2.5 µM (≈ 6.26 µg/mL); in data set [3], 12.5 µM (≈ 31.3 µg/mL); in [4], 100 µM (≈ 250 µg/mL); in the data set on VRE ATCC 29212 it was 25 µM (≈ 62.6 µg/mL). In addition, the MIC stood at 12 µM (≈ 30 µg/mL) against Vibrio cholerae MCV09; 5 µM (≈ 12.5 µg/mL) in the data set with MRSA ATCC 43300; 30 µM (≈ 75.1 µg/mL) in [5]; 25 µM (≈ 62.6 µg/mL) in [6]; 12.5 µM (≈ 31.3 µg/mL) in data set [7]. The “SYTOX green fluorescence signal (membrane permeabilization)” value in the data set with V. cholerae (MCV09) and in the data set on S. aureus (MTCC 9542) was “marked increase in fluorescence signal” in each case. For the same compound, the results for the “Percentage hemolysis at MIC” value in the data set on human erythrocytes (setting [9]), with human erythrocytes (setting [10]) and in the data set with human erythrocytes (setting [11]) were 25%, 8% and 25%, respectively. Further, in [8], the “Changes in surface morphology (AFM)” value is “changes in surface morphology and aggregation”.

As to `CC[C@H](C)[C@H](NC(=O)CNC(=O)[C@@H]1CCCN1C(=O)[C@H](Cc1ccccc1)NC(=O)[C@@H](N)Cc1ccccc1)C(=O)N[C@H](C(=O)N[C@@H](CCCCN)C(=O)N[C@H](C(=O)N[C@@H](C)C(=O)N[C@@H](CO)C(=O)N[C@@H](C)C(=O)N[C@H](C(=O)N[C@@H](CC(C)C)C(=O)N1CCC[C@H]1C(=O)N[C@H](C(=O)N[C@@H](C)C(=O)N[C@H](C(=O)N[C@H]1CSSC[C@@H](C(N)=O)NC(=O)[C@H](CCCNC(=N)N)NC(=O)[C@H](CCCCN)NC(=O)[C@H]([C@@H](C)O)NC(=O)[C@H]([C@@H](C)CC)NC(=O)[C@H](C)NC1=O)[C@@H](C)CC)[C@@H](C)O)[C@@H](C)CC)C(C)C)[C@@H](C)CC` [Cyclic B1/1 CONH2] (H-FFPGIIKVASAILPTAICAITKRC-NH2; disulfide 18-24; N-terminus assumed), the minimum inhibitory concentration (MIC) in the data set with E .coli. ATCC 25922 amounted to 50 µM (≈ 127 µg/mL); in data set [1] it was 40 µM (≈ 101 µg/mL); in data set [2], 3 µM (≈ 7.59 µg/mL); in [3] it was 25 µM (≈ 63.3 µg/mL); in data set [4], 100 µM (≈ 253 µg/mL); in the data set on VRE ATCC 29212, 25 µM (≈ 63.3 µg/mL). Further, the MIC in the data set with Vibrio cholerae MCV09 is 12.5 µM (≈ 31.6 µg/mL); against MRSA ATCC 43300 it was 5 µM (≈ 12.7 µg/mL); in [5], 45 µM (≈ 114 µg/mL); in [6] it was 25 µM (≈ 63.3 µg/mL); in [7], 3 µM (≈ 7.59 µg/mL). For the same compound, the “Percentage hemolysis at MIC” value in the data set on human erythrocytes (setting [9]) is given as 10%; in the data set on human erythrocytes (setting [10]), 11%; in the data set with human erythrocytes (setting [11]), 20%.

Take `CC[C@H](C)[C@H](NC(=O)CNC(=O)[C@@H]1CCCN1C(=O)[C@H](Cc1ccccc1)NC(=O)[C@@H](N)Cc1ccccc1)C(=O)N[C@H](C(=O)N[C@@H](CCCCN)C(=O)N[C@H](C(=O)N[C@@H](C)C(=O)NCC(=O)N[C@@H](C)C(=O)N[C@H](C(=O)N[C@@H](CC(C)C)C(=O)N1CCC[C@H]1C(=O)N[C@H](C(=O)N[C@@H](C)C(=O)N[C@H](C(=O)N[C@H]1CSSC[C@@H](C(N)=O)NC(=O)[C@H](CCCNC(=N)N)NC(=O)[C@H](CCCCN)NC(=O)[C@H]([C@@H](C)O)NC(=O)[C@H]([C@@H](C)CC)NC(=O)[C@H](C)NC1=O)[C@@H](C)CC)[C@@H](C)O)[C@@H](C)CC)C(C)C)[C@@H](C)CC` [Cyclic B1/2 CONH2] (H-FFPGIIKVAGAILPTAICAITKRC-NH2; disulfide 18-24; N-terminus assumed): the minimum inhibitory concentration (MIC) in the data set on E .coli. ATCC 25922 is 50 µM (≈ 125 µg/mL); in [1], 40 µM (≈ 100 µg/mL); in [2], 3 µM (≈ 7.5 µg/mL); in data set [3] it was 29 µM (≈ 72.5 µg/mL); in [4], 50 µM (≈ 125 µg/mL); with VRE ATCC 29212 it was 30 µM (≈ 75 µg/mL). Besides, the MIC was found to be 12.5 µM (≈ 31.3 µg/mL) against Vibrio cholerae MCV09; 7 µM (≈ 17.5 µg/mL) with MRSA ATCC 43300; 35 µM (≈ 87.5 µg/mL) in data set [5]; 25 µM (≈ 62.5 µg/mL) in data set [6]; 3 µM (≈ 7.5 µg/mL) in data set [7]. In addition, the “Percentage hemolysis at MIC” value in the data set on human erythrocytes (setting [9]) turned out to be 12%; with human erythrocytes (setting [10]) it was 15%; in the data set on human erythrocytes (setting [11]), 25%.

Broadly, the MIC is the lowest concentration found to suppress growth. Lower therefore signals inhibition by little substance.
